This is an account of results in US4443603A, “Piperazine derivatives, of aromatic acids” (Kowa Company Limited, priority 1981, dated 1984).

What all share (assay type): biochemical
The target of one assay is Chymotrypsin (Bos taurus, UniProt P00766). Briefly: Chymotrypsin inhibitory effects (Hestrin color method, acetyl-L-tyrosine ethyl ester substrate). The settings on record: pH 8.0, 10 min preincubation, 30 min at 37° C., ethyl ester of acetyl-L-tyrosine; read-out: 50% Inhibitory Concentration, Chymotrypsin. The protocol: Following the procedure of Muramatsu et al [The Journal of Biochemistry, 62, 408 (1967)], a mixture of 0.1 ml of a dimethylsulfoxide solution of each test compound, 0.1 ml of water and 0.1 ml of a buffer solution containing chymotrypsin in an amount of 10 μg/ml (a 0.1 mole trishydrochloric acid buffer solution, pH 8.0) was incubated for 10 minutes, combined with 0.1 ml of a buffer solution containing 25 millimoles of an ethyl ester of acetyl-L-tyrosine and then reacted with the ethyl ester at 37° C. for 30 minutes. The remaining substrate was caused to develop a color in accordance with the Hestrin method, and the amount was determined by measuring the absorbance at 530 nm. As a control compound, use was made of tosylphenylalanine chloromethyl ketone.

The target of another assay is Thrombin (Homo sapiens, UniProt P00734). The assay is described as follows: Thrombin inhibitory effects (Hestrin color method, tosylarginine methyl ester substrate). The settings on record: pH 7.4, 10 min preincubation, 30 min at 37° C., methyl ester of tosylarginine; read-out: 50% Inhibitory Concentration, Thrombin. How it is done:
Following the procedure of Tamura et al [Biochim. Biophys. Acta, 484, 417 (1977)], a mixture of 0.1 ml of a dimethylsulfoxide solution of each test compound, 0.1 ml of a buffer solution (a 0.1 mole sodium phosphate buffer, pH 7.4) and 0.1 ml of a buffer solution containing thrombin in an amount of 37.5 units/ml was incubated for 10 minutes, mixed with 0.2 ml of a buffer solution containing 25 millimoles of a methyl ester of tosylarginine and then reacted with the methyl ester at 37° C. for 30 minutes. The remaining substrate was caused to develop a color in accordance with the Hestrin method, and the amount was determined by measuring the absorbance at 530 nm.

The next assay addresses T1, Trypsin (Bos taurus, UniProt P00760).
T1 sequence (P00760 24-246): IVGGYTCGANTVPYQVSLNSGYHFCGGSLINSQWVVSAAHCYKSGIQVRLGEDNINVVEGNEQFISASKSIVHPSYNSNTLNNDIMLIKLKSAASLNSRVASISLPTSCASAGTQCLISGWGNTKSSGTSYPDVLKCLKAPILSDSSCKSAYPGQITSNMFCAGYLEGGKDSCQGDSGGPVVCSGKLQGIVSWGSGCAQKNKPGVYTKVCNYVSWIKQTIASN
Briefly: Trypsin inhibitory effects (Hestrin color method, tosylarginine methyl ester substrate). The settings on record: pH 8.0, 10 min preincubation, 30 min at 37° C., methyl ester of tosylarginine; read-out: 50% Inhibitory Concentration, Trypsin. The protocol:
Following the procedure of Muramatsu et al [The Journal of Biochemistry, 58, 214 (1967)], a mixture of 0.1 ml of a dimethylsufoxide solution of each test compound, 0.1 ml of a buffer solution (obtained by dissolving 10 millimoles of calcium chloride in a 0.1 mole trishydrochloric acid buffer solution, pH 8.0) and 0.1 ml of a buffer solution containing trypsin in an amount of 2.5 μg/ml was incubated for 10 minutes, mixed with 0.2 ml of a buffer solution containing 25 millimoles of a methyl ester of tosylarginine and then reacted with the methyl ester at 37° C. for 30 minutes. The remaining substrate was caused to develop a color in accordance with the Hestrin method, and the amount was determined by measuring the absorbance at 530 nm.

Turning to `Cc1ccc(S(=O)(=O)N[C@@H](Cc2ccccc2)C(=O)CCl)cc1` [TPCK, Tosylphenylalanine chloromethyl ketone, reference compound], the IC50 at Chymotrypsin stood at 500 µM.
Take `COc1ccc2[nH]c(C)c(CC(=O)Oc3ccc(C(=O)OCCN4CCN(CCN5CCOCC5)CC4)cc3)c2c1` [Test Compound 1, 4-{[2-[4-[2-(Morpholino)ethyl]piperazino]ethyl]oxycarbonyl}phenyl 5-methoxy-2-methylindole-3-acetate]: the IC50 on Thrombin came out at 100 µM; at Chymotrypsin, 0.1 µM; at Trypsin it was 50 µM.
Regarding `COc1ccc2c(c1)c(CC(=O)Oc1ccc(C(=O)OCCN3CCN(CC(=O)N4CCCC4)CC3)cc1)c(C)n2C` [Test Compound 2, 4-{[2-[4-(Pyrrolidinocarbonylmethyl)piperazino]ethyl]oxycarbonyl}phenyl 1,2-dimethyl-5-methoxyindole-3-acetate], the IC50 at Thrombin turned out to be 900 µM; at Chymotrypsin, 0.07 µM; at Trypsin, 500 µM.
The matching figures for `O=C(OCCN1CCN(CC(=O)N2CCOCC2)CC1)c1ccc(OC(=O)C2CCCc3ccccc32)cc1` (stereo not shown) [Test Compound 3, 4-{[2-[4-(Morpholinocarbonylmethyl)piperazino]ethyl]oxycarbonyl}phenyl 1,2,3,4-tetrahydro-1-naphthoate]: 90 µM, 0.6 µM and 500 µM.
Take `CN(C)C(=O)CN1CCN(CCOC(=O)c2ccc(OC(=O)Cc3cccc4ccccc34)cc2)CC1` [Test Compound 4, 4-{[2-[4-(Dimethylaminocarbonylmethyl)piperazino]ethyl]oxycarbonyl}phenyl 1-naphthylacetate]: the IC50 is 9 µM on Thrombin, 0.3 µM on Chymotrypsin and above 1000 µM at Trypsin.
Turning to `O=C(Cc1cccc2ccccc12)Oc1ccc(C(=O)OCCN2CCN(CC(=O)N3CCCCC3)CC2)cc1` [Test Compound 5, 4-{[2-[4-(Piperidinocarbonylmethyl)piperazino]ethyl]oxycarbonyl}phenyl 1-naphtylacetate], the IC50 at Thrombin was 9 µM; on Chymotrypsin it was 0.3 µM; at Trypsin, above 1000 µM.
For the compound `COc1ccc2[nH]c(C)c(CC(=O)Oc3ccc(C(=O)OCCN4CCN(CC(=O)N(C)C)CC4)cc3)c2c1` [Test Compound 6, 4-{[2-[4-(Dimethylaminocarbonylmethyl)piperazino]ethyl]oxycarbonyl}phenyl 5-methoxy-2-methylindole-3-acetate], the IC50 at Thrombin was determined as 60 µM; on Chymotrypsin, 0.5 µM; on Trypsin, 80 µM.
In the case of `COc1ccc2[nH]c(C)c(CC(=O)Oc3ccc(C(=O)OCCN4CCN(CC(=O)N5CCOCC5)CC4)cc3)c2c1` [Test Compound 7, 4-{[2-[4-(Morpholinocarbonylmethyl)piperazino]ethyl]oxycarbonyl}phenyl 5-methoxy-2-methylindole-3-acetate], the IC50 is 70 µM on Thrombin, 0.6 µM at Chymotrypsin and 200 µM at Trypsin.
On to `COc1ccc2[nH]cc(CC(=O)Oc3ccc(C(=O)OCCN4CCN(CC(=O)N5CCCC5)CC4)cc3)c2c1` [Test Compound 8, 4-{[2-[4-(Pyrrolidinocarbonylmethyl)piperazino]ethyl]oxycarbonyl}phenyl 5-methoxyindole-3-acetate], for which the IC50 on Thrombin is 600 µM; at Chymotrypsin, 0.05 µM; at Trypsin it was above 1000 µM.
Consider `COc1ccc2[nH]c(C)c(CC(=O)Oc3ccc(C(=O)OCCN4CCN(C)CC4)cc3)c2c1` [Test Compound 9, 4-{[2-(4-Methylpiperazino)ethyl]oxycarbonyl}phenyl 5-methoxy-2-methylindole-3-acetate], for which the IC50 at Thrombin was found to be 40 µM; on Chymotrypsin it was 0.06 µM; at Trypsin it was 300 µM.
Take `COc1ccc2[nH]c(C)c(CC(=O)Oc3ccc(C=CC(=O)N4CCN(CC(=O)N5CCCC5)CC4)cc3)c2c1` [Test Compound 10, 1-[4-(5-Methoxy-2-methylindole-3-acetyloxy)cynnamoyl]-4-(pyrrolidinocarbonylmethyl)piperazine]: the results for the IC50 on Thrombin, on Chymotrypsin and at Trypsin were 300 µM, 0.8 µM and 600 µM, respectively.
On the same counts, the results for `COc1ccc2[nH]c(C)c(CC(=O)Oc3ccc(C(=O)NCCN4CCN(CC(=O)N5CCOCC5)CC4)cc3)c2c1` [Test Compound 11, 4-{[2-[4-(Morpholinocarbonylmethyl)piperazino]ethyl]carbamoyl}phenyl 5-methoxy-2-methylindole-3-acetate] are 100 µM, 0.6 µM and 80 µM.
